The source of these data is patent US7858776B2, “Lactams and uses thereof” (AstraZeneca AB, priority 2002, dated 2010).

Counter-ions that a name gives are not always drawn.

In turn, `C[C@H](NCCc1ccccc1)C(=O)N[C@@H]1C(=O)Nc2ccccc2S[C@@H]1c1ccccc1` (as salt: hydrochloride) [Example 98, N^1-[(2R,3R)-4-Oxo-2-phenyl-2,3,4,5-tetrahydro-1,5-benzothiazepin-3-yl]-N^2-(2-Phenylethyl)-L-alaninamide] gave a melting point of 184 to 195 °C.

In turn, `C[C@H](NC(=O)Cc1cc(F)cc(F)c1)C(=O)N[C@@H]1C(=O)NCCS[C@@H]1c1ccccc1` [Example 7, N^2-[(3,5-Difluorophenyl)acetyl]-N^1-[(6R,7R)-5-oxo-7-phenyl-1,4-thiazepan-6-yl]-L-alaninamide] gave a melting point of 128 to 133 °C. The result for `CC(C)C[C@H](O)C(=O)N[C@@H](C)C(=O)N[C@@H]1C(=O)NCCS[C@@H]1c1ccccc1` [Example 93, N^2-[(2S)-2-Hydroxy-4-methyl-1-oxopentyl]-N^1-[(6R,7R)-5-oxo-7-phenyl-1,4-thiazepan-6-yl]-L-alaninamide] reads 93 to 99 °C.

Turning to `C[C@H](NC(=O)Cc1ccccc1)C(=O)N[C@@H]1C(=O)Nc2ccccc2S[C@@H]1c1ccccc1` [Example 97, N^1-[(2R,3R)-4-Oxo-2-phenyl-2,3,4,5-tetrahydro-1,5-benzothiazepin-3-yl]-N^2-(phenylacetyl)-L-alaninamide], the melting point lay within 114 to 124 °C. The result for `C[C@H](NC(=O)Cc1cc(F)cc(F)c1)C(=O)N[C@@H]1C(=O)Nc2ccccc2S[C@@H]1c1cccs1` [Example 99, N^2-[(3,5-Difluorophenyl)acetyl]-N^1-[(2S,3R)-4-oxo-2-(2-thienyl)-2,3,4,5-tetrahydro-1,5-benzothiazepin-3-yl]-L-alaninamide] reads 117 to 119 °C; that for `C[C@H](NC(=O)Cc1cc(F)cc(F)c1)C(=O)N[C@@H]1C(=O)Nc2ccccc2S[C@@H]1c1ccco1` [Example 101, N^2-[(3,5-Difluorophenyl)acetyl]-N^1-[(2S,3R)-2-(2-furyl)-4-oxo-2,3,4,5-tetrahydro-1,5-benzothiazepin-3-yl]-L-alaninamide], 125 to 130 °C; that for `C[C@H](NC(=O)Cc1cc(F)cc(F)c1)C(=O)N[C@@H]1C(=O)Nc2ccccc2S[C@H]1c1ccoc1` [Example 102, N^2-[(3,5-Difluorophenyl)acetyl]-N^1-[(2S,3R)-2-(3-furyl)-4-oxo-2,3,4,5-tetrahydro-1,5-benzothiazepin-3-yl]-L-alaninamide], 115 to 120 °C.

Take `C[C@H](NC(=O)Cc1cc(F)cc(F)c1)C(=O)N[C@@H]1C(=O)Nc2ccccc2S[C@@H]1c1cc(Br)cs1` [Example 104, N^1-[(2S,3R)-2-(4-Bromo-2-thienyl)-4-oxo-2,3,4,5-tetrahydro-1,5-benzothiazepin-3-yl]-N^2-[(3,5-difluorophenyl)acetyl]-L-alaninamide]: the melting point was in the range of 145 to 155 °C. The result for `N[C@@H](Cc1ccccc1)C(=O)N(C(=O)Cc1cc(F)cc(F)c1)[C@@H]1C(=O)Nc2ccccc2S[C@@H]1c1ccccc1` [Example 105, N-[(3,5-Difluorophenyl)acetyl]-N-[(2R,3R)-4-oxo-2-phenyl-2,3,4,5-tetrahydro-1,5-benzothiazepin-3-yl]-L-phenylalaninamide] reads 115 to 120 °C; that for `O=C(Cc1cc(F)cc(F)c1)NCC(=O)N[C@@H]1C(=O)Nc2ccccc2S[C@@H]1c1ccccc1` [Example 106, N^2-[(3,5-Difluorophenyl)acetyl]-N^1-[(2R,3R)-4-oxo-2-phenyl-2,3,4,5-tetrahydro-1,5-benzothiazepin-3-yl]glycinamide], 125 to 130 °C. The result for `CC(C)[C@H](NC(=O)Cc1cc(F)cc(F)c1)C(=O)N[C@@H]1C(=O)Nc2ccccc2S[C@@H]1c1ccccc1` [Example 107, N^2-[(3,5-Difluorophenyl)acetyl]-N^1-[(2R,3R)-4-oxo-2-phenyl-2,3,4,5-tetrahydro-1,5-benzothiazepin-3-yl]-L-valinamide] reads 110 to 115 °C; that for `CSCC[C@H](NC(=O)Cc1cc(F)cc(F)c1)C(=O)N[C@@H]1C(=O)Nc2ccccc2S[C@@H]1c1ccccc1` [Example 109, N^2-[(3,5-Difluorophenyl)acetyl]N^1-[(2R,3R)-4-oxo-2-phenyl-2,3,4,5-tetrahydro-1,5-benzothiazepin-3-yl]-L-methioninamide], 85 to 90 °C; that for `O=C(Cc1cc(F)cc(F)c1)N[C@@H](Cc1cc2ccccc2[nH]1)C(=O)N[C@@H]1C(=O)Nc2ccccc2S[C@@H]1c1ccccc1` [Example 110, N^2-[(3,5-Difluorophenyl)acetyl]-3-(1H-indol-2-yl)-N^1-[(2R,3R)-4-oxo-2-phenyl-2,3,4,5-tetrahydro-1,5-benzothiazepin-3-yl]-L-alaninamide], 85 to 90 °C. `C[C@H](NC(=O)Cc1ccccc1)C(=O)N[C@@H]1C(=O)Nc2ccccc2O[C@@H]1c1ccccc1` [Example 113, N^1-[(2R,3S)-4-Oxo-2-phenyl-2,3,4,5-tetrahydro-1,5-benzoxazepin-3-yl]-N^2-(phenylacetyl)-L-alaninamide] returned a melting point of 122 to 136 °C. The result for `C[C@H](NC(=O)Cc1ccccc1F)C(=O)N[C@@H]1C(=O)Nc2ccccc2O[C@@H]1c1ccccc1` [Example 114, N^2-[(2-Fluorophenyl)acetyl]-N^1-[(2R,3S)-4-oxo-2-phenyl-2,3,4,5-tetrahydro-1,5-benzoxazepin-3-yl]-L-alaninamide] reads 115 to 135 °C; that for `C[C@H](NC(=O)Cc1cccc(F)c1)C(=O)N[C@@H]1C(=O)Nc2ccccc2O[C@@H]1c1ccccc1` [Example 115, N^2-[(3-Fluorophenyl)acetyl]-N^1-[(2R,3S)-4-oxo-2-phenyl-2,3,4,5-tetrahydro-1,5-benzoxazepin-3-yl]-L-alaninamide], 130 to 140 °C; that for `C[C@H](NC(=O)Cc1ccc(F)cc1)C(=O)N[C@@H]1C(=O)Nc2ccccc2O[C@@H]1c1ccccc1` [Example 116, N^2-[(4-Fluorophenyl)acetyl]-N^1-[(2R,3S)-4-oxo-2-phenyl-2,3,4,5-tetrahydro-1,5-benzoxazepin-3-yl]-L-alaninamide], 130 to 140 °C.

The term melting point denotes the temperature, or range, at which the solid turns liquid.
